Laboratory results reported in patent US6518243B1, “Desleucyl glycopeptide antibiotics and methods of making same” (Trustees of Princeton University, priority 1999, dated 2003).

Experiments:
Assay in all cases: Zone of inhibition screen, 96 well agar array format
Assay type in all cases: cell-based
Set-up in all cases: scale not given here
[1] = test system: S. epidermidis (ATCC 12228)
Procedure, shortened: (§1)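 Antibacterial testing on a 96-well agar array; each compound screened separately.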

[2] = test system: S. aureus (ATCC 29213)
Procedure, shortened: as §1

[3] = test system: E. faecalis (CL 4877)
Procedure, shortened: as §1

[4] = zone of inhibition relative to 1 mg/ml p-chlorobiphenylvancomycin
[5] = zone of inhibition relative to 1 mg/ml stock solution of p-chlorobiphenylvancomycin

Compound | zone score, S. aureus ATCC 29213 [2, 4] | zone score, E. faecalis CL 4877 [3, 4] | zone score, S. aureus ATCC 29213 [2, 5] | zone score, E. faecalis CL 4877 [3, 5] | also measured
CC1OC(OC2C(Oc3c4cc5cc3Oc3ccc(cc3Cl)C(O)C3NC(=O)C(NC(=O)C5NC(=O)C(CC(N)=O)NC(=O)C(NC(=O)c5cccc(F)c5)C(O)c5ccc(c(Cl)c5)O4)c4ccc(O)c(c4)-c4c(O)cc(O)cc4C(C(=O)O)NC3=O)OC(CO)C(O)C2O)CC(C)(NCc2ccc(-c3ccc(Cl)cc3)cc2)C1O (centres unmarked) [Compound 259] | – | – | – | – | zone score, S. epidermidis ATCC 12228 [1, 4]: 2
CC(=O)N1CCC(C(=O)NC2C(=O)NC(CC(N)=O)C(=O)NC3C(=O)NC4C(=O)NC(C(=O)NC(C(=O)O)c5cc(O)cc(O)c5-c5cc4ccc5O)C(O)c4ccc(c(Cl)c4)Oc4cc3cc(c4OC3OC(CO)C(O)C(O)C3OC3CC(C)(NCc4ccc(-c5ccc(Cl)cc5)cc4)C(O)C(C)O3)Oc3ccc(cc3Cl)C2O)CC1 (centres unmarked) [Compound 99] | – | – | – | – | zone score, S. epidermidis ATCC 12228 [1, 5]: 2
C[C@H]1O[C@H](O[C@H]2[C@H](Oc3c4cc5cc3Oc3ccc(cc3Cl)[C@@H](O)[C@@H](NC(=O)c3ccoc3)C(=O)N[C@@H](CC(N)=O)C(=O)N[C@H]5C(=O)N[C@H]3C(=O)N[C@H](C(=O)N[C@@H](C(=O)O)c5cc(O)cc(O)c5-c5cc3ccc5O)[C@H](O)c3ccc(c(Cl)c3)O4)O[C@H](CO)[C@@H](O)[C@@H]2O)C[C@@](C)(NCc2ccc(-c3ccc(Cl)cc3)cc2)[C@H]1O [Compound 260] | – | – | – | – | zone score, S. epidermidis ATCC 12228 [1, 4]: 2
CC1OC(OC2C(Oc3c4cc5cc3Oc3ccc(cc3Cl)C(O)C3NC(=O)C(NC(=O)C5NC(=O)C(CC(N)=O)NC(=O)C(NC(=O)CNC(=O)CNC(=O)CNC(=O)CNC(=O)OCc5ccccc5)C(O)c5ccc(c(Cl)c5)O4)c4ccc(O)c(c4)-c4c(O)cc(O)cc4C(C(=O)O)NC3=O)OC(CO)C(O)C2O)CC(C)(NCc2ccc(-c3ccc(Cl)cc3)cc2)C1O (centres unmarked) [Compound 214] | 2 | 2 | – | – | –
CC1OC(OC2C(Oc3c4cc5cc3Oc3ccc(cc3Cl)C(O)C(NC(=O)C3(C(N)=O)CC3)C(=O)NC(CC(N)=O)C(=O)NC5C(=O)NC3C(=O)NC(C(=O)NC(C(=O)O)c5cc(O)cc(O)c5-c5cc3ccc5O)C(O)c3ccc(c(Cl)c3)O4)OC(CO)C(O)C2O)CC(C)(NCc2ccc(-c3ccc(Cl)cc3)cc2)C1O (centres unmarked) [Compound 98] | – | – | 2 | 2 | –
CC1OC(OC2C(Oc3c4cc5cc3Oc3ccc(cc3Cl)C(O)C3NC(=O)C(NC(=O)C5NC(=O)C(CC(N)=O)NC(=O)C(NC(=O)C(N)CCCNC(=N)N)C(O)c5ccc(c(Cl)c5)O4)c4ccc(O)c(c4)-c4c(O)cc(O)cc4C(C(=O)O)NC3=O)OC(CO)C(O)C2O)CC(C)(NCc2ccc(-c3ccc(Cl)cc3)cc2)C1O (centres unmarked) [Compound 90] | – | – | 2 | 2 | –
CC(NC(=O)OC(C)(C)C)C(=O)NCC(=O)N(C)CC(=O)NC1C(=O)NC(CC(N)=O)C(=O)NC2C(=O)NC3C(=O)NC(C(=O)NC(C(=O)O)c4cc(O)cc(O)c4-c4cc3ccc4O)C(O)c3ccc(c(Cl)c3)Oc3cc2cc(c3OC2OC(CO)C(O)C(O)C2OC2CC(C)(NCc3ccc(-c4ccc(Cl)cc4)cc3)C(O)C(C)O2)Oc2ccc(cc2Cl)C1O (centres unmarked) [Compound 132] | – | – | 2 | 2 | –
CSCCC(NC(C)=O)C(=O)NC1C(=O)NC(CC(N)=O)C(=O)NC2C(=O)NC3C(=O)NC(C(=O)NC(C(=O)O)c4cc(O)cc(O)c4-c4cc3ccc4O)C(O)c3ccc(c(Cl)c3)Oc3cc2cc(c3OC2OC(CO)C(O)C(O)C2OC2CC(C)(NCc3ccc(-c4ccc(Cl)cc4)cc3)C(O)C(C)O2)Oc2ccc(cc2Cl)C1O (centres unmarked) [Compound 115] | – | – | 2 | 2 | –
CC(=O)NCCCC(=O)NC1C(=O)NC(CC(N)=O)C(=O)NC2C(=O)NC3C(=O)NC(C(=O)NC(C(=O)O)c4cc(O)cc(O)c4-c4cc3ccc4O)C(O)c3ccc(c(Cl)c3)Oc3cc2cc(c3OC2OC(CO)C(O)C(O)C2OC2CC(C)(NCc3ccc(-c4ccc(Cl)cc4)cc3)C(O)C(C)O2)Oc2ccc(cc2Cl)C1O (centres unmarked) [Compound 107] | – | – | 2 | 2 | –
CC1OC(OC2C(Oc3c4cc5cc3Oc3ccc(cc3Cl)C(O)C3NC(=O)C(NC(=O)C5NC(=O)C(CC(N)=O)NC(=O)C(NC(=O)c5cccc(SC(F)(F)F)c5)C(O)c5ccc(c(Cl)c5)O4)c4ccc(O)c(c4)-c4c(O)cc(O)cc4C(C(=O)O)NC3=O)OC(CO)C(O)C2O)CC(C)(NCc2ccc(-c3ccc(Cl)cc3)cc2)C1O (centres unmarked) [Compound 248] | 2 | 2 | – | – | –
CC(=O)NCSCC(N)C(=O)NC1C(=O)NC(CC(N)=O)C(=O)NC2C(=O)NC3C(=O)NC(C(=O)NC(C(=O)O)c4cc(O)cc(O)c4-c4cc3ccc4O)C(O)c3ccc(c(Cl)c3)Oc3cc2cc(c3OC2OC(CO)C(O)C(O)C2OC2CC(C)(NCc3ccc(-c4ccc(Cl)cc4)cc3)C(O)C(C)O2)Oc2ccc(cc2Cl)C1O (centres unmarked) [Compound 49] | – | – | 2 | 2 | –
CC1OC(OC2C(Oc3c4cc5cc3Oc3ccc(cc3Cl)C(O)C3NC(=O)C(NC(=O)C5NC(=O)C(CC(N)=O)NC(=O)C(NC(=O)CCNC(N)=O)C(O)c5ccc(c(Cl)c5)O4)c4ccc(O)c(c4)-c4c(O)cc(O)cc4C(C(=O)O)NC3=O)OC(CO)C(O)C2O)CC(C)(NCc2ccc(-c3ccc(Cl)cc3)cc2)C1O (centres unmarked) [Compound 221] | 2 | 2 | – | – | –
CC1OC(OC2C(Oc3c4cc5cc3Oc3ccc(cc3Cl)C(O)C(NC(=O)C(C)(CO)CO)C(=O)NC(CC(N)=O)C(=O)NC5C(=O)NC3C(=O)NC(C(=O)NC(C(=O)O)c5cc(O)cc(O)c5-c5cc3ccc5O)C(O)c3ccc(c(Cl)c3)O4)OC(CO)C(O)C2O)CC(C)(NCc2ccc(-c3ccc(Cl)cc3)cc2)C1O (centres unmarked) [Compound 232] | 2 | 2 | – | – | –
CC(=O)N1CC(O)CC1C(=O)NC1C(=O)NC(CC(N)=O)C(=O)NC2C(=O)NC3C(=O)NC(C(=O)NC(C(=O)O)c4cc(O)cc(O)c4-c4cc3ccc4O)C(O)c3ccc(c(Cl)c3)Oc3cc2cc(c3OC2OC(CO)C(O)C(O)C2OC2CC(C)(NCc3ccc(-c4ccc(Cl)cc4)cc3)C(O)C(C)O2)Oc2ccc(cc2Cl)C1O (centres unmarked) [Compound 121] | – | – | 2 | 2 | –
CC1OC(OC2C(Oc3c4cc5cc3Oc3ccc(cc3Cl)C(O)C3NC(=O)C(NC(=O)C5NC(=O)C(CC(N)=O)NC(=O)C(NC(=O)CNC(=O)c5cccnc5)C(O)c5ccc(c(Cl)c5)O4)c4ccc(O)c(c4)-c4c(O)cc(O)cc4C(C(=O)O)NC3=O)OC(CO)C(O)C2O)CC(C)(NCc2ccc(-c3ccc(Cl)cc3)cc2)C1O (centres unmarked) [Compound 197] | – | – | 2 | 2 | –
CC1OC(OC2C(Oc3c4cc5cc3Oc3ccc(cc3Cl)C(O)C3NC(=O)C(NC(=O)C5NC(=O)C(CC(N)=O)NC(=O)C(NC(=O)CS(=O)(=O)O)C(O)c5ccc(c(Cl)c5)O4)c4ccc(O)c(c4)-c4c(O)cc(O)cc4C(C(=O)O)NC3=O)OC(CO)C(O)C2O)CC(C)(NCc2ccc(-c3ccc(Cl)cc3)cc2)C1O (centres unmarked) [Compound 205] | 2 | 2 | – | – | –
CC=C(N)C(=O)NC1C(=O)NC(CC(N)=O)C(=O)NC2C(=O)NC3C(=O)NC(C(=O)NC(C(=O)O)c4cc(O)cc(O)c4-c4cc3ccc4O)C(O)c3ccc(c(Cl)c3)Oc3cc2cc(c3OC2OC(CO)C(O)C(O)C2OC2CC(C)(NCc3ccc(-c4ccc(Cl)cc4)cc3)C(O)C(C)O2)Oc2ccc(cc2Cl)C1O (centres unmarked) [Compound 219] | 2 | 2 | – | – | –
CC1OC(OC2C(Oc3c4cc5cc3Oc3ccc(cc3Cl)C(O)C(NC(=O)C(O)C(O)C(O)C(O)CO)C(=O)NC(CC(N)=O)C(=O)NC5C(=O)NC3C(=O)NC(C(=O)NC(C(=O)O)c5cc(O)cc(O)c5-c5cc3ccc5O)C(O)c3ccc(c(Cl)c3)O4)OC(CO)C(O)C2O)CC(C)(NCc2ccc(-c3ccc(Cl)cc3)cc2)C1O (centres unmarked) [Compound 157] | – | – | 2 | 2 | –
CC1OC(OC2C(Oc3c4cc5cc3Oc3ccc(cc3Cl)C(O)C3NC(=O)C(NC(=O)C5NC(=O)C(CC(N)=O)NC(=O)C(NC(=O)c5ccc(=O)oc5)C(O)c5ccc(c(Cl)c5)O4)c4ccc(O)c(c4)-c4c(O)cc(O)cc4C(C(=O)O)NC3=O)OC(CO)C(O)C2O)CC(C)(NCc2ccc(-c3ccc(Cl)cc3)cc2)C1O (centres unmarked) [Compound 282] | 2 | 2 | – | – | –
CC1OC(OC2C(Oc3c4cc5cc3Oc3ccc(cc3Cl)C(O)C3NC(=O)C(NC(=O)C5NC(=O)C(CC(N)=O)NC(=O)C(NC(=O)COc5cc(Cl)c(Cl)cc5Cl)C(O)c5ccc(c(Cl)c5)O4)c4ccc(O)c(c4)-c4c(O)cc(O)cc4C(C(=O)O)NC3=O)OC(CO)C(O)C2O)CC(C)(NCc2ccc(-c3ccc(Cl)cc3)cc2)C1O (centres unmarked) [Compound 233] | 2 | 2 | – | – | –
CC(=O)NC(C)C(=O)NC1C(=O)NC(CC(N)=O)C(=O)NC2C(=O)NC3C(=O)NC(C(=O)NC(C(=O)O)c4cc(O)cc(O)c4-c4cc3ccc4O)C(O)c3ccc(c(Cl)c3)Oc3cc2cc(c3OC2OC(CO)C(O)C(O)C2OC2CC(C)(NCc3ccc(-c4ccc(Cl)cc4)cc3)C(O)C(C)O2)Oc2ccc(cc2Cl)C1O (centres unmarked) [Compound 110] | – | – | 2 | 2 | –
CC1OC(OC2C(Oc3c4cc5cc3Oc3ccc(cc3Cl)C(O)C3NC(=O)C(NC(=O)C5NC(=O)C(CC(N)=O)NC(=O)C(NC(=O)CNC(=O)CNC(=O)CNC(=O)OCc5ccccc5)C(O)c5ccc(c(Cl)c5)O4)c4ccc(O)c(c4)-c4c(O)cc(O)cc4C(C(=O)O)NC3=O)OC(CO)C(O)C2O)CC(C)(NCc2ccc(-c3ccc(Cl)cc3)cc2)C1O (centres unmarked) [Compound 215] | 2 | 2 | – | – | –
